Reference: PMC11306077, “Diterpenoids target SARS-CoV-2 RdRp from the roots of Euphorbia fischeriana Steud” (Frontiers in Plant Science, 2024)

Biological target: T1, SARS-CoV-2 RdRp (RNA-dependent RNA polymerase, NSP12) (Severe acute respiratory syndrome coronavirus 2, UniProt P0DTD1)
T1 construct: gene rep
Test: microscale thermophoresis (MST)
Format: binding

C[C@H]1C(=O)CC[C@]2(C)[C@@H]1CC[C@@]13CC[C@@H]([C@@H](O)[C@H]12)[C@]1(COC(C)(C)O1)C3 [compound 1, (4R,5S,8S,9S,10R,11S,12S,16S)-ent-11α-hydroxy-16α,17-acetonide-19-noratisan-3-one]
Kd: 31.1 µM
